The values that follow come from patent publication US20050124607A1, “5-Substituted quinazolinone compounds useful as alpha 1A/B adrenergic receptor antagonists” (priority 2003, published 2005).

One assay addresses T1, alpha1B adrenoceptor (Homo sapiens, UniProt P35368).
T1 construct: expressed in transfected cells; host or cells: CHO-K1
T1 sequence (P35368 1-520): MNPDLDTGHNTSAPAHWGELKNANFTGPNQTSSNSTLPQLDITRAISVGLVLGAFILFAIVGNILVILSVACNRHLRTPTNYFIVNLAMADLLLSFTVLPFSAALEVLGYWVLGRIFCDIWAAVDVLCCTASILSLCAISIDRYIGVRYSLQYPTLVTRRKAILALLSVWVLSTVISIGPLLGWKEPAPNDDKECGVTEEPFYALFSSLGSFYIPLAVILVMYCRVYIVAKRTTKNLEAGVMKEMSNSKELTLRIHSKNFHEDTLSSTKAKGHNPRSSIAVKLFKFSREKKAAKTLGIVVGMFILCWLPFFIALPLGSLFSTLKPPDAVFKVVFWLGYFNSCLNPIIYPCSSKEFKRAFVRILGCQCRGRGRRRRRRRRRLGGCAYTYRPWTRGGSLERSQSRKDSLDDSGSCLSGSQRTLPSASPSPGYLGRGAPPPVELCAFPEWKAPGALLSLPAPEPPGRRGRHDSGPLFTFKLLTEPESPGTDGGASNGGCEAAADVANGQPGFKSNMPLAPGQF
The experiment in a line: [3H]prazosin binding (alpha1-adrenoceptor) assay, alpha 1B. The following applies: transfected CHO-K1 cell membranes, read-out: pKi alpha 1B (converted). On the procedure:
(§1) Alpha1 A, alpha1B, and alpha1D adrenoceptor transfected CHO-K1 cells, prepared using the methods described by Chang et al., FEBS Lett. 1998, 422:279-283, were grown to confluence in T-162 tissue culture flasks in Ham's F-12 culture medium supplemented with 10% fetal bovine serum, geneticin (150 μg/mL) and streptomycin/penicillin (30 μg/mL/30 μg/mL) at 37° C. in 7% CO2. Cells were harvested by incubating with phosphate-buffered saline (PBS) containing 30 μM EDTA for 5-10 min at 37° C. Cells were pelleted by centrifuging at 500×g for 5 min, and the pelleted cells were homogenized (Polytron homogenizer) in 10 vols (w/v) of 50 mM Tris, 1 mM EDTA, (homogenisation buffer, pH 7.4 at 4° C.). The homogenate was centrifuged at 45,000×g for 20 min. The pellet was resuspended in the homogenizing buffer and rehomogenized. The resulting homogenate was centrifuged at 45,000×g for 20 min. The pellet was resuspended in 50 mM Tris buffer (pH 7.4 at 4° C.), aliquoted, frozen, and stored at −80° C. for further use.
(§2) The membranes were thawed at rt and diluted in assay buffer (50 mM Tris buffer at […]) at 37° C. and homogenized using the Polytron tissue disrupter. The membranes were incubated with the radioligand ([^3H]prazosin, NEN, 0.1-0.5 nM) and test compound at 37° C. for 30 min. The membranes were then filtered over polyethyleneimine-treated GF/B unifilter plates using a Packard Filtermate Harvester and washed with ice-cold 50 mM Tris-HCl, 1 mM EDTA buffer (3×3 sec. washes). Scintillation cocktail was added to the filter plates and bound radioligand determined by liquid scintillation spectrophotometry.
(§3) For each experiment, total binding (in the absence of any test or reference compounds) and non-specific binding (10 μM phentolamine) were determined. For each sample tested, the concentration producing 50% inhibition of binding (IC50) and Hill Slope (nH) was determined using iterative non-linear curve fitting techniques with Kaleidagraph (Synergy Software) or other appropriate software. If the radioligand KD was known, the inhibition dissociation constant (KI) of each ligand was determined according to the method of Cheng and Prusoff (Cheng, Y-C. and Prusoff, W. H., Biochem.Pharmacol., 1973, 22, 3099-3108).

The next assay addresses T2, alpha1D adrenoceptor (Homo sapiens, UniProt P25100).
T2 construct: expressed in transfected cells; host or cells: CHO-K1
T2 sequence (P25100 1-572): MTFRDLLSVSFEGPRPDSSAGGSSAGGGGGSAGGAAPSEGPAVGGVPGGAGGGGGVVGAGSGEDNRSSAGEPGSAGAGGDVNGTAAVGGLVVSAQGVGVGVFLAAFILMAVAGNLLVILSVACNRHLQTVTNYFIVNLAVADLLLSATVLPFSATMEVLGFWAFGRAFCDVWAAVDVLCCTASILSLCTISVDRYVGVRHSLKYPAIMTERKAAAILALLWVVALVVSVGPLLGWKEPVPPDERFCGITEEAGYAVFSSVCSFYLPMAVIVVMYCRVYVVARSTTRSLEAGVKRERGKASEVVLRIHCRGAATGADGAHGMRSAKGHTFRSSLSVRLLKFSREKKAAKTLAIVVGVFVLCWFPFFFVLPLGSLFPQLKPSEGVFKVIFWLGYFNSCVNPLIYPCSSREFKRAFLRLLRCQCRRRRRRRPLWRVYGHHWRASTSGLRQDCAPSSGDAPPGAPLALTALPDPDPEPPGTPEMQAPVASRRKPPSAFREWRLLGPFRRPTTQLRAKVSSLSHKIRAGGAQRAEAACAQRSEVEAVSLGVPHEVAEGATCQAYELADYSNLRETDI
Put plainly: [3H]prazosin binding (alpha1-adrenoceptor) assay, alpha 1D. The conditions noted are these: transfected CHO-K1 cell membranes, read-out: pKi alpha 1D (converted). On the procedure:
as §1, §2, §3

In another assay the target is T3, alpha1A adrenoceptor (Homo sapiens, UniProt P35348).
T3 construct: expressed in transfected cells; host or cells: CHO-K1
T3 sequence (P35348 1-466): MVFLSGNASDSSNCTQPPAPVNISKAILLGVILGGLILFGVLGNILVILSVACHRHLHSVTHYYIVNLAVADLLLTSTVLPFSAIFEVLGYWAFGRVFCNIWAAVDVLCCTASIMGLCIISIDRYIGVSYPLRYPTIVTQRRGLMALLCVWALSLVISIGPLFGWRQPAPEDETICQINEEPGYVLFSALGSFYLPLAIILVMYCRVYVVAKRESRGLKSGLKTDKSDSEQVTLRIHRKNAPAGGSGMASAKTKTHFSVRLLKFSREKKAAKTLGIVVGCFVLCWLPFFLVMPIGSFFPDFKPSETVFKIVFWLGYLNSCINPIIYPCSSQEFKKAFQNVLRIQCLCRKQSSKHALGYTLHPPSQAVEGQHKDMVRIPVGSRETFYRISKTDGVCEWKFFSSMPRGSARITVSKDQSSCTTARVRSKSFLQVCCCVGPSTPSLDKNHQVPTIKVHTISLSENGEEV
Put plainly: [3H]prazosin binding (alpha1-adrenoceptor) assay, alpha 1A. The conditions noted are these: transfected CHO-K1 cell membranes, read-out: pKi alpha 1A (converted). On the procedure:
as §1, §2, §3

Assay [1] concerns hypogastric nerve stimulation-induced increases in intraurethral pressure and phenylephrine-induced increases in diastolic blood pressure. Put plainly: In vivo intraurethral and blood pressure assay in anesthetized dog. The following applies: anesthetized male mongrel dog, i.v. bolus, increasing doses. On the procedure:
The following describes an in vivo assay for measuring the relative effect of test compounds on hypogastric nerve stimulation-induced increases in intraurethral pressure and phenylephrine-induced increases in diastolic blood pressure in anesthetized dog.
Male Mongrel dogs (10 to 20 kg) were-fasted for 12 to 18 hours and anesthetized with phenobarbital sodium (36 mg/kg, i.v.). An endotracheal tube was inserted and thereafter the lungs were mechanically ventilated with room air. The right femoral vein was isolated and cannulated with two polyethylene cannulae, one for the administration of a continuous infusion of phenobarbital sodium (5 to 10 mg/kg/hr) and the other for bolus administration of test substances. The right femoral artery was isolated and cannulated to the abdominal aorta with a fluid filled polyethylene cannula connected to an external pressure transducer for monitoring diastolic aortic pressure (DAP). The bladder was exposed via a ventral midline abdominal incision and emptied of urine through a 22 gauge needle. The bladder was cannulated through a stab incision with a water filled balloon catheter connected to an external pressure transducer for monitoring prostatic intraurethral pressure (IUP). The right hypogastric nerve (HGN) was carefully isolated and attached to a Dastre's electrode for nerve stimulation. […]

Turning to `COc1cc2[nH]c(N3CCC4(CC3)CN(c3ccc(F)cc3)C(=O)CO4)nc(=O)c2c(OC)c1OC`, the Ki at alpha1B adrenoceptor was 13.8 nM; at alpha1D adrenoceptor it was 257 nM; on alpha1A adrenoceptor, 6.17 nM.
`COc1cc2[nH]c(N3CCN(c4ncc[nH]4)CC3)nc(=O)c2c(OC)c1OC` [2-[4-(1H-Imidazol-2-yl)-piperazin-1-yl]-5,6,7-tri-methoxy-1H-quinazolin-4-one]: the values for the Ki at alpha1B adrenoceptor, at alpha1D adrenoceptor and at alpha1A adrenoceptor were 2.51 nM, 457 nM and 1.12 nM, respectively.
The corresponding values for `COc1cc2[nH]c(N3CCC(CCn4ccnc4)CC3)nc(=O)c2c(C)c1OC` [2-[4-(2-Imidazol-1-yl-ethyl)-piperidin-1-yl]-6,7-di-methoxy-5-methyl-1H-quinazolin-4-one] are 2.19 nM, 87.1 nM and 5.25 nM.
For `CNCC(=O)N(C)Cc1cccc2c1CCN(c1nc(=O)c3c(C)c(OC)c(OC)cc3[nH]1)C2` [N-[2-(6,7-Dimethoxy-5-methyl-4-oxo-1,4-dihydro-quinazolin-2-yl)-1,2,3,4-tetrahydro-isoquinolin-5-ylmethyl]-N-methyl-2-methylamino-acetamide], in that order: 1.58 nM, 79.4 nM and 1.58 nM.
Consider `COc1cc2nc(N3CCN(C(=O)c4ccco4)CC3)nc(N)c2cc1OC` [prazosin], for which the “inhibition of HGN stimulation-induced increases in IUP and PE-induced increases in DAP” value in assay [1] is “inhibited increases in IUP and DAP in similar fashion”.
